Reference: ChEMBL document CHEMBL4359854, “Repurposing mosloflavone/5,6,7-trimethoxyflavone-resveratrol hybrids: Discovery of novel p38-α MAPK inhibitors as potent interceptors of macrophage-dependent production of proinflammatory mediators” (Eur J Med Chem, 2019)
Each block holds one compound with its values, some of them ahead of it. Calls of active or inactive are those of the source. The calls are words filed in the database; no cut-off is given here.

Assays:
[1] = test system: RAW264.7; assay: Anti-inflammatory activity in mouse RAW264.7 cells assessed as inhibition of LPS-induced IL-6 production at 1 uM preincubated for 1 hr followed by LPS addition and measured after 24 hrs by EIA relative to control; format: functional
[2] = test system: RAW264.7; assay: Anti-inflammatory activity in mouse RAW264.7 cells assessed as inhibition of LPS-induced IL-1beta production at 1 uM preincubated for 1 hr followed by LPS addition and measured after 24 hrs by EIA relative to control; format: functional
[3] = Cytotoxicity against LPS-induced mouse RAW264.7 cells assessed as cell viability at 1 uM incubated for 24 hrs by MTT assay relative to control; format: cell-based; conditions: LPS-induced RAW264.7 cells, read-out: Activity
[4] = test system: RAW264.7; assay: Anti-inflammatory activity in mouse RAW264.7 cells assessed as inhibition of LPS-induced TNFalpha production at 1 uM preincubated for 1 hr followed by LPS addition and measured after 24 hrs by EIA relative to control; format: functional
[5] = test system: RAW264.7; assay: Anti-inflammatory activity in mouse RAW264.7 cells assessed as inhibition of LPS-induced PGE2 production at 1 uM preincubated for 1 hr followed by LPS addition and measured after 24 hrs by EIA relative to control; format: functional
[6] = test system: RAW264.7; assay: Anti-inflammatory activity in mouse RAW264.7 cells assessed as inhibition of LPS-induced NO production at 1 uM preincubated for 1 hr followed by LPS addition and measured after 24 hrs by Griess reagent-based assay relative to control; format: functional
[7] = test system: RAW264.7; assay: Anti-inflammatory activity in mouse RAW264.7 cells assessed as inhibition of LPS-induced PGE2 production at 0.2 uM preincubated for 1 hr followed by LPS addition and measured after 24 hrs by EIA; format: functional, cell-based
[8] = test system: RAW264.7; assay: Anti-inflammatory activity in mouse RAW264.7 cells assessed as inhibition of LPS-induced PGE2 production preincubated for 1 hr followed by LPS addition and measured after 24 hrs by EIA; format: functional, cell-based

SMILES: COc1cc2oc(-c3cccc(C(=O)Nc4ccccc4)c3)cc(=O)c2c(O)c1OC
inhibition at 1 µM [1]: -5.27% | inhibition at 1 µM [2]: 23.3% | viability at 24 h, 1 µM [3]: 103% | inhibition at 1 µM [4]: 45.6% | inhibition at 1 µM [5]: 20% | inhibition at 1 µM [6]: 5.15%

SMILES: COc1cc2oc(-c3cccc(C(=O)Nc4ccccc4)c3)cc(=O)c2c(OC)c1OC
inhibition at 1 µM [1]: 12.5% | inhibition at 1 µM [2]: 86.8% | viability at 24 h, 1 µM [3]: 90.6% | inhibition at 1 µM [4]: 24.2% | inhibition at 1 µM [5]: -10.9% | inhibition at 1 µM [6]: 13%

SMILES: COc1cc2oc(-c3cccc(NC(=O)c4ccc5c(c4)OCO5)c3)cc(=O)c2c(OC)c1OC
inhibition at 1 µM [1]: -9.56% | inhibition at 1 µM [2]: 38.2% | viability at 24 h, 1 µM [3]: 116% | inhibition at 1 µM [4]: -40.6% | inhibition at 1 µM [5]: 17.1% | inhibition at 1 µM [6]: 7.13%

SMILES: COc1cc2oc(-c3cccc(C(=O)Nc4ccc5c(c4)OCO5)c3)cc(=O)c2c(O)c1OC
inhibition at 1 µM [1]: 12.8% | inhibition at 1 µM [2]: 27.1% | viability at 24 h, 1 µM [3]: 97.1% | inhibition at 1 µM [4]: -7.5% | inhibition at 1 µM [5]: -2.8% | inhibition at 1 µM [6]: -5.15%

SMILES: COc1ccccc1C(=O)Nc1cccc(-c2cc(=O)c3c(OC)c(OC)c(OC)cc3o2)c1
inhibition at 1 µM [1]: -15.8% | inhibition at 1 µM [2]: 25.2% | viability at 24 h, 1 µM [3]: 99.8% | inhibition at 1 µM [4]: -83.9% | inhibition at 1 µM [5]: 33.9% | inhibition at 1 µM [6]: 1.11%

SMILES: COc1ccc(C(=O)Nc2ccc(-c3cc(=O)c4c(OC)c(OC)c(OC)cc4o3)cc2)cc1
inhibition at 1 µM [1]: -40.9% | inhibition at 1 µM [2]: -2.33% | viability at 24 h, 1 µM [3]: 92.4% | inhibition at 1 µM [4]: 27.4% | inhibition at 1 µM [5]: 36.8% | inhibition at 1 µM [6]: 3.26%

SMILES: COc1cc2oc(-c3ccc(NC(=O)c4ccccc4)cc3)cc(=O)c2c(OC)c1OC
inhibition at 1 µM [1]: -23.2% | inhibition at 1 µM [2]: -30.2% | viability at 24 h, 1 µM [3]: 109% | inhibition at 1 µM [4]: -8.22% | inhibition at 1 µM [5]: 7% | inhibition at 1 µM [6]: 9.71%

SMILES: COc1cc2oc(-c3cccc(C(=O)Nc4ccc5c(c4)OCO5)c3)cc(=O)c2c(OC)c1OC
inhibition at 1 µM [1]: 25.7% | inhibition at 1 µM [2]: -54.4% | viability at 24 h, 1 µM [3]: 92% | inhibition at 1 µM [4]: 9.94% | inhibition at 1 µM [5]: 16.1% | inhibition at 1 µM [6]: 17%

SMILES: COc1ccc(C(=O)Nc2cccc(-c3cc(=O)c4c(O)c(OC)c(OC)cc4o3)c2)cc1
inhibition at 1 µM [1]: -7.54% | inhibition at 1 µM [2]: 34.6% | viability at 24 h, 1 µM [3]: 105% | inhibition at 1 µM [4]: 48.2% | inhibition at 1 µM [5]: 52.7% | inhibition at 1 µM [6]: 6.52%

SMILES: COc1cccc(C(=O)Nc2cccc(-c3cc(=O)c4c(OC)c(OC)c(OC)cc4o3)c2)c1
inhibition at 1 µM [1]: -52.5% | inhibition at 1 µM [2]: 75.6% | viability at 24 h, 1 µM [3]: 117% | inhibition at 1 µM [4]: -88% | inhibition at 1 µM [5]: 2.62% | inhibition at 1 µM [6]: 19.9%

SMILES: COc1cccc(NC(=O)c2cccc(-c3cc(=O)c4c(OC)c(OC)c(OC)cc4o3)c2)c1
inhibition at 1 µM [1]: 7.66% | inhibition at 1 µM [2]: 82.6% | viability at 24 h, 1 µM [3]: 84.2% | inhibition at 1 µM [4]: 34.1% | inhibition at 1 µM [5]: -11.4% | inhibition at 1 µM [6]: 12.3%

SMILES: COc1cccc(NC(=O)c2cccc(-c3cc(=O)c4c(O)c(OC)c(OC)cc4o3)c2)c1
inhibition at 1 µM [1]: 1.96% | inhibition at 1 µM [2]: 18.5% | viability at 24 h, 1 µM [3]: 103% | inhibition at 1 µM [4]: 5.85% | inhibition at 1 µM [5]: 35.4% | inhibition at 1 µM [6]: 10.9%

SMILES: COc1cc2oc(-c3cccc(NC(=O)c4ccc5c(c4)OCO5)c3)cc(=O)c2c(O)c1OC
inhibition at 1 µM [1]: -6.67% | inhibition at 1 µM [2]: 11.6% | viability at 24 h, 1 µM [3]: 104% | inhibition at 1 µM [4]: -12.1% | inhibition at 1 µM [5]: 49.3% | inhibition at 1 µM [6]: 7.46%

SMILES: COc1cccc(C(=O)Nc2ccc(-c3cc(=O)c4c(OC)c(OC)c(OC)cc4o3)cc2)c1
inhibition at 1 µM [1]: -47.5% | inhibition at 1 µM [2]: 4.65% | viability at 24 h, 1 µM [3]: 111% | inhibition at 1 µM [4]: -9.17% | inhibition at 1 µM [5]: 16.1% | inhibition at 1 µM [6]: 9.41%

IC50 [8]: 1.99 µM
SMILES: COc1ccccc1NC(=O)c1cccc(-c2cc(=O)c3c(OC)c(OC)c(OC)cc3o2)c1
inhibition at 1 µM [1]: -32.2% | inhibition at 1 µM [2]: 71.2% | inhibition [7]: Active | viability at 24 h, 1 µM [3]: 101% | inhibition at 1 µM [4]: 22.9% | inhibition at 1 µM [5]: 42.5% | inhibition [8]: Dose-dependent effect | inhibition at 1 µM [6]: 20.6%

IC50 [8]: 2.38 µM
SMILES: COc1ccccc1NC(=O)c1cccc(-c2cc(=O)c3c(O)c(OC)c(OC)cc3o2)c1
inhibition at 1 µM [1]: -21.4% | inhibition at 1 µM [2]: -2.41% | inhibition [7]: Active | viability at 24 h, 1 µM [3]: 99.4% | inhibition at 1 µM [4]: 36.1% | inhibition at 1 µM [5]: 50.5% | inhibition [8]: Dose-dependent effect | inhibition at 1 µM [6]: 7.19%

SMILES: COc1ccc(NC(=O)c2cccc(-c3cc(=O)c4c(OC)c(OC)c(OC)cc4o3)c2)cc1
inhibition at 1 µM [1]: 19.2% | inhibition at 1 µM [2]: 128% | viability at 24 h, 1 µM [3]: 90% | inhibition at 1 µM [4]: 25.3% | inhibition at 1 µM [5]: 2.29% | inhibition at 1 µM [6]: 6.87%

SMILES: COc1ccc(C(=O)Nc2cccc(-c3cc(=O)c4c(OC)c(OC)c(OC)cc4o3)c2)cc1
inhibition at 1 µM [1]: -12.5% | inhibition at 1 µM [2]: 12.2% | viability at 24 h, 1 µM [3]: 102% | inhibition at 1 µM [4]: 20.4% | inhibition at 1 µM [5]: 6.21% | inhibition at 1 µM [6]: 11.1%

SMILES: COc1cc2oc(-c3ccc(NC(=O)c4ccc5c(c4)OCO5)cc3)cc(=O)c2c(OC)c1OC
viability at 24 h, 1 µM [3]: 63%

SMILES: COc1ccc(NC(=O)c2cccc(-c3cc(=O)c4c(O)c(OC)c(OC)cc4o3)c2)cc1
inhibition at 1 µM [1]: 10.2% | inhibition at 1 µM [2]: 13.1% | viability at 24 h, 1 µM [3]: 92.8% | inhibition at 1 µM [4]: -0.1% | inhibition at 1 µM [5]: 3.44% | inhibition at 1 µM [6]: -10.3%

SMILES: COc1cccc(C(=O)Nc2cccc(-c3cc(=O)c4c(O)c(OC)c(OC)cc4o3)c2)c1
inhibition at 1 µM [1]: -6.92% | inhibition at 1 µM [2]: 35.8% | viability at 24 h, 1 µM [3]: 109% | inhibition at 1 µM [4]: 33.8% | inhibition at 1 µM [5]: 35.4% | inhibition at 1 µM [6]: 6.46%

SMILES: COc1cc2oc(-c3cccc(NC(=O)c4ccccc4)c3)cc(=O)c2c(OC)c1OC
inhibition at 1 µM [1]: -17% | inhibition at 1 µM [2]: 16.5% | viability at 24 h, 1 µM [3]: 95.8% | inhibition at 1 µM [4]: 20.9% | inhibition at 1 µM [5]: -11.3% | inhibition at 1 µM [6]: 3.31%
